Laboratory results as given in PubChem BioAssay (NCI).
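A five-concentration, 48-hour dose response in 96-well plates underlies each endpoint, interpolated linearly between surrounding concentrations. GI50: concentration for 50% inhibition of growth. Definition used: TGI = concentration required for complete inhibition of growth.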

Assays:
Test in all cases: NCI anticancer screen, dose series, 48 h; in the data active = GI50 below about 0.43 µM; inactive = the rest
786-0 renal = tested on: 786-0 renal
A498 renal = tested on: A498 renal
A549 NSCLC = tested on: A549 NSCLC
ACHN renal = tested on: ACHN renal
BT-549 breast = tested on: BT-549 breast
CAKI-1 renal = tested on: CAKI-1 renal
CCRF-CEM leukemia = tested on: CCRF-CEM leukemia
COLO 205 colon = tested on: COLO 205 colon
DU-145 prostate = tested on: DU-145 prostate
EKVX NSCLC = tested on: EKVX NSCLC
HCC-2998 colon = tested on: HCC-2998 colon
HCT-116 colon = tested on: HCT-116 colon
HCT-15 colon = tested on: HCT-15 colon
HL-60(TB) leukemia = tested on: HL-60(TB) leukemia
HOP-62 NSCLC = tested on: HOP-62 NSCLC
HOP-92 NSCLC = tested on: HOP-92 NSCLC
HS 578T breast = tested on: HS 578T breast
HT29 colon = tested on: HT29 colon
IGROV1 ovarian = tested on: IGROV1 ovarian
K-562 leukemia = tested on: K-562 leukemia
KM12 colon = tested on: KM12 colon
LOX IMVI melanoma = tested on: LOX IMVI melanoma
M14 melanoma = tested on: M14 melanoma
MALME-3M melanoma = tested on: MALME-3M melanoma
MCF7 breast = tested on: MCF7 breast
MDA-MB-231 breast = tested on: MDA-MB-231 breast
MDA-MB-435 = tested on: MDA-MB-435
MOLT-4 leukemia = tested on: MOLT-4 leukemia
NCI-H226 lung = tested on: NCI-H226 lung
NCI-H23 lung = tested on: NCI-H23 lung
NCI-H460 lung = tested on: NCI-H460 lung
NCI-H522 lung = tested on: NCI-H522 lung
NCI/ADR-RES ovarian = tested on: NCI/ADR-RES ovarian
OVCAR-3 ovarian = tested on: OVCAR-3 ovarian
OVCAR-4 ovarian = tested on: OVCAR-4 ovarian
OVCAR-5 ovarian = tested on: OVCAR-5 ovarian
OVCAR-8 ovarian = tested on: OVCAR-8 ovarian
PC-3 prostate = tested on: PC-3 prostate
RPMI-8226 leukemia = tested on: RPMI-8226 leukemia
RXF 393 renal = tested on: RXF 393 renal
SF-268 CNS = tested on: SF-268 CNS
SF-295 CNS = tested on: SF-295 CNS
SF-539 CNS = tested on: SF-539 CNS
SK-MEL-2 melanoma = tested on: SK-MEL-2 melanoma
SK-MEL-28 melanoma = tested on: SK-MEL-28 melanoma
SK-MEL-5 melanoma = tested on: SK-MEL-5 melanoma
SK-OV-3 ovarian = tested on: SK-OV-3 ovarian
SN12C renal = tested on: SN12C renal
SNB-19 CNS = tested on: SNB-19 CNS
SNB-75 CNS = tested on: SNB-75 CNS
SW-620 colon = tested on: SW-620 colon
T-47D breast = tested on: T-47D breast
TK-10 renal = tested on: TK-10 renal
U251 CNS = tested on: U251 CNS
UACC-257 melanoma = tested on: UACC-257 melanoma
UACC-62 melanoma = tested on: UACC-62 melanoma
UO-31 renal = tested on: UO-31 renal
SR leukemia = tested on: SR leukemia

Nc1nc(-c2ccccn2)c(-c2ccc3ncccc3n2)s1
> 25 µM: TGI (786-0 renal) | TGI (A498 renal) | TGI (A549 NSCLC) | TGI (ACHN renal) | TGI (BT-549 breast) | TGI (CAKI-1 renal) | TGI (CCRF-CEM leukemia) | TGI (COLO 205 colon) | TGI (DU-145 prostate) | TGI (EKVX NSCLC) | TGI (HCC-2998 colon) | TGI (HCT-116 colon) | TGI (HCT-15 colon) | TGI (HL-60(TB) leukemia) | TGI (HOP-62 NSCLC) | TGI (HOP-92 NSCLC) | TGI (HS 578T breast) | TGI (HT29 colon) | TGI (IGROV1 ovarian) | TGI (K-562 leukemia) | TGI (KM12 colon) | TGI (LOX IMVI melanoma) | TGI (M14 melanoma) | TGI (MALME-3M melanoma) | TGI (MCF7 breast) | TGI (MDA-MB-231 breast) | TGI (MDA-MB-435) | TGI (MOLT-4 leukemia) | TGI (NCI-H226 lung) | TGI (NCI-H23 lung) | TGI (NCI-H460 lung) | TGI (NCI-H522 lung) | TGI (NCI/ADR-RES ovarian) | TGI (OVCAR-3 ovarian) | TGI (OVCAR-4 ovarian) | TGI (OVCAR-5 ovarian) | TGI (OVCAR-8 ovarian) | TGI (PC-3 prostate) | TGI (RPMI-8226 leukemia) | TGI (RXF 393 renal) | TGI (SF-268 CNS) | TGI (SF-295 CNS) | TGI (SF-539 CNS) | TGI (SK-MEL-2 melanoma) | TGI (SK-MEL-28 melanoma) | TGI (SK-MEL-5 melanoma) | TGI (SK-OV-3 ovarian) | TGI (SN12C renal) | TGI (SNB-19 CNS) | TGI (SNB-75 CNS) | TGI (SW-620 colon) | TGI (T-47D breast) | TGI (TK-10 renal) | TGI (U251 CNS) | TGI (UACC-257 melanoma) | TGI (UACC-62 melanoma) | TGI (UO-31 renal)
inactive: GI50 (786-0 renal) > 25 µM | GI50 (A498 renal) > 25 µM | GI50 (A549 NSCLC) > 25 µM | GI50 (ACHN renal) > 25 µM | GI50 (BT-549 breast) > 25 µM | GI50 (CAKI-1 renal) > 25 µM | GI50 (CCRF-CEM leukemia) > 25 µM | GI50 (COLO 205 colon) > 25 µM | GI50 (DU-145 prostate) > 25 µM | GI50 (EKVX NSCLC) > 25 µM | GI50 (HCC-2998 colon) > 25 µM | GI50 (HCT-116 colon) > 25 µM | GI50 (HCT-15 colon) > 25 µM | GI50 (HL-60(TB) leukemia) > 25 µM | GI50 (HOP-62 NSCLC) > 25 µM | GI50 (HOP-92 NSCLC) 13.3 µM | GI50 (HS 578T breast) > 25 µM | GI50 (HT29 colon) > 25 µM | GI50 (IGROV1 ovarian) > 25 µM | GI50 (K-562 leukemia) > 25 µM | GI50 (KM12 colon) > 25 µM | GI50 (LOX IMVI melanoma) > 25 µM | GI50 (M14 melanoma) > 25 µM | GI50 (MALME-3M melanoma) > 25 µM | GI50 (MCF7 breast) > 25 µM | GI50 (MDA-MB-231 breast) > 25 µM | GI50 (MDA-MB-435) > 25 µM | GI50 (MOLT-4 leukemia) > 25 µM | GI50 (NCI-H226 lung) > 25 µM | GI50 (NCI-H23 lung) > 25 µM | GI50 (NCI-H460 lung) > 25 µM | GI50 (NCI-H522 lung) > 25 µM | GI50 (NCI/ADR-RES ovarian) > 25 µM | GI50 (OVCAR-3 ovarian) > 25 µM | GI50 (OVCAR-4 ovarian) > 25 µM | GI50 (OVCAR-5 ovarian) > 25 µM | GI50 (OVCAR-8 ovarian) > 25 µM | GI50 (PC-3 prostate) > 25 µM | GI50 (RPMI-8226 leukemia) > 25 µM | GI50 (RXF 393 renal) > 25 µM | GI50 (SF-268 CNS) > 25 µM | GI50 (SF-295 CNS) > 25 µM | GI50 (SF-539 CNS) > 25 µM | GI50 (SK-MEL-2 melanoma) > 25 µM | GI50 (SK-MEL-28 melanoma) > 25 µM | GI50 (SK-MEL-5 melanoma) > 25 µM | GI50 (SK-OV-3 ovarian) > 25 µM | GI50 (SN12C renal) > 25 µM | GI50 (SNB-19 CNS) > 25 µM | GI50 (SNB-75 CNS) > 25 µM | GI50 (SW-620 colon) > 25 µM | GI50 (T-47D breast) > 25 µM | GI50 (TK-10 renal) > 25 µM | GI50 (U251 CNS) > 25 µM | GI50 (UACC-257 melanoma) > 25 µM | GI50 (UACC-62 melanoma) > 25 µM | GI50 (UO-31 renal) > 25 µM

O=C(CNC(=O)c1cccc2ccccc12)Nc1ccccc1Oc1ccc(O)cc1
9.97 µM: TGI (A498 renal)
2.45 µM: TGI (SF-539 CNS)
active: GI50 (MDA-MB-435) 0.161 µM
0.687 µM: TGI (MDA-MB-435)
2.06 µM: TGI (HL-60(TB) leukemia)
3.56 µM: TGI (COLO 205 colon)
10.4 µM: TGI (RPMI-8226 leukemia)
1.72 µM: TGI (RXF 393 renal)
inactive: GI50 (786-0 renal) 1.04 µM | GI50 (A498 renal) 1.01 µM | GI50 (A549 NSCLC) 1.49 µM | GI50 (ACHN renal) 1.86 µM | GI50 (BT-549 breast) 1.63 µM | GI50 (CCRF-CEM leukemia) 0.94 µM | GI50 (COLO 205 colon) 0.796 µM | GI50 (DU-145 prostate) 1.15 µM | GI50 (EKVX NSCLC) 1.17 µM | GI50 (HCC-2998 colon) 8.98 µM | GI50 (HCT-116 colon) 0.978 µM | GI50 (HCT-15 colon) 0.909 µM | GI50 (HL-60(TB) leukemia) 0.705 µM | GI50 (HOP-62 NSCLC) 1.35 µM | GI50 (HOP-92 NSCLC) > 25 µM | GI50 (HS 578T breast) 1.34 µM | GI50 (HT29 colon) 0.992 µM | GI50 (IGROV1 ovarian) 2.33 µM | GI50 (K-562 leukemia) 0.497 µM | GI50 (KM12 colon) 0.919 µM | GI50 (LOX IMVI melanoma) 1.72 µM | GI50 (M14 melanoma) 0.698 µM | GI50 (MCF7 breast) 0.847 µM | GI50 (MDA-MB-231 breast) 3.18 µM | GI50 (MOLT-4 leukemia) 1.21 µM | GI50 (NCI-H226 lung) 4.74 µM | GI50 (NCI-H23 lung) 2.16 µM | GI50 (NCI-H460 lung) 0.969 µM | GI50 (NCI-H522 lung) 0.852 µM | GI50 (NCI/ADR-RES ovarian) 1.19 µM | GI50 (OVCAR-3 ovarian) 0.744 µM | GI50 (OVCAR-4 ovarian) 2.8 µM | GI50 (OVCAR-5 ovarian) 6.3 µM | GI50 (OVCAR-8 ovarian) 1.31 µM | GI50 (PC-3 prostate) 1.31 µM | GI50 (RPMI-8226 leukemia) 0.97 µM | GI50 (RXF 393 renal) 0.5 µM | GI50 (SF-268 CNS) 3.31 µM | GI50 (SF-295 CNS) 0.62 µM | GI50 (SF-539 CNS) 0.688 µM | GI50 (SK-MEL-28 melanoma) > 25 µM | GI50 (SK-MEL-5 melanoma) 0.846 µM | GI50 (SK-OV-3 ovarian) 1.59 µM | GI50 (SN12C renal) 2.19 µM | GI50 (SNB-19 CNS) 1.42 µM | GI50 (SNB-75 CNS) 0.591 µM | GI50 (SR leukemia) 0.459 µM | GI50 (SW-620 colon) 0.911 µM | GI50 (T-47D breast) 1.54 µM | GI50 (TK-10 renal) 16.9 µM | GI50 (U251 CNS) 1.41 µM | GI50 (UACC-257 melanoma) > 25 µM | GI50 (UACC-62 melanoma) 1.17 µM | GI50 (UO-31 renal) 1.78 µM
> 25 µM: TGI (786-0 renal) | TGI (A549 NSCLC) | TGI (ACHN renal) | TGI (BT-549 breast) | TGI (CCRF-CEM leukemia) | TGI (DU-145 prostate) | TGI (EKVX NSCLC) | TGI (HCC-2998 colon) | TGI (HCT-116 colon) | TGI (HCT-15 colon) | TGI (HOP-62 NSCLC) | TGI (HOP-92 NSCLC) | TGI (HS 578T breast) | TGI (HT29 colon) | TGI (IGROV1 ovarian) | TGI (K-562 leukemia) | TGI (KM12 colon) | TGI (LOX IMVI melanoma) | TGI (M14 melanoma) | TGI (MCF7 breast) | TGI (MDA-MB-231 breast) | TGI (MOLT-4 leukemia) | TGI (NCI-H226 lung) | TGI (NCI-H23 lung) | TGI (NCI-H460 lung) | TGI (NCI-H522 lung) | TGI (NCI/ADR-RES ovarian) | TGI (OVCAR-3 ovarian) | TGI (OVCAR-4 ovarian) | TGI (OVCAR-5 ovarian) | TGI (OVCAR-8 ovarian) | TGI (PC-3 prostate) | TGI (SF-268 CNS) | TGI (SF-295 CNS) | TGI (SK-MEL-28 melanoma) | TGI (SK-MEL-5 melanoma) | TGI (SK-OV-3 ovarian) | TGI (SN12C renal) | TGI (SNB-19 CNS) | TGI (SNB-75 CNS) | TGI (SR leukemia) | TGI (SW-620 colon) | TGI (T-47D breast) | TGI (TK-10 renal) | TGI (U251 CNS) | TGI (UACC-257 melanoma) | TGI (UACC-62 melanoma) | TGI (UO-31 renal)
